Laboratory results: patent publication EP4595976A1, “COMPOSITION FOR TREATING CANCER CONTAINING HISTONE DEACETYLASE INHIBITOR, AND ANTICANCER ADJUVANT FOR CANCER IMMUNOTHERAPY” (Samsung Life Public Welfare Foundation, priority 2022, dated 2024)

Columns and labels:
CT26 [1] = experiment: Animal experiment using HDAC6 inhibitor with or without anti-PD-L1 antibody, CT26 tumors; type: in vivo; conditions: during treatment with HDAC6 inhibitor; FIG. 9D
Description: The animal experiment using an HDAC6 inhibitor was conducted using a total of three groups, a control group (control), an HDAC6i (Next A) group, and an HDAC6i (Next A)+anti-PD-L1 group. Nexturastat A (SellekChem) was used as HDAC6i (HDAC6 inhibitor), and #BE0101(Bioxcell) was used as an anti-PD-L1 antibody. CT26 (1x10^6) cells and BALB/C mice were used. Three mice for the control group, three mice for the HDAC6i group, and four mice for the HDAC6i+anti-PD-L1 group were used.
• HDAC6i group: HDAC6i 20 mpk(mg/kg) intraperitoneally injected daily • HDAC6i+anti-PD-L1 group: HDAC6i 20 mpk intra peritoneally injected every day and anti-PD-L1 antibody 10 mpk intra peritoneally injected three times per week.
In addition, paraffin blocks of tumor tissues were prepared for histological staining, and subjected to H&E and TUNEL assay in order to investigate cell death. […]
Additionally, the expression of related genes was examined by real-time PCR after the isolation of RNA form tumors. In the animal experiment according to an example of the present invention, the mRNA changes of PD-L1, TNF-a and IFN-γ (pro-inflammatory cytokines), IL-6 (anti-inflammatory cytokine), and IRF-1 (target gene for JAK2/STAT1 signaling) were measured, and the results are shown in FIG. 11.

HT29 = experiment: IC50 concentration at which 50% of cells are dead, inhibitor treatment for 48 hours; type: cell-based; conditions: Homo sapiens, HT-29; Table 4; HT29, MSS (48hr); read-out: IC50(mean±SD)
Description: (§1) The IC50 concentration, which is the concentration at which 50% of cells are dead, was obtained by treating each cell line with an inhibitor at different concentrations for 48 hours and then determining the concentrations at which 50% of the cells were dead. Especially, the results obtained by treating various MSS cell lines (SW620, LS513, HT29, and CT26) with HDAC6i are shown in Table 4 below.

LS513 = experiment: as above; type: cell-based; conditions: Homo sapiens, LS-513, Table 3, LS513 (MSS), read-out: IC50(mean±SD)
Description: as §1

DLD-1 = experiment: as above; type: cell-based; conditions: Homo sapiens, Table 3, DLD-1 (MSI), read-out: IC50(mean±SD)
Description: as §1

SW620 = experiment: as above; type: cell-based; conditions: Homo sapiens, SW-620, Table 3, SW620 (MSS), read-out: IC50(mean±SD)
Description: as §1

CT26 [2] = experiment: as above; type: cell-based; conditions: Mus musculus; Table 4; CT26, MSS (48hr); read-out: IC50(mean±SD)
Description: as §1

PD-L1 and B7H3 = PD-L1 and B7H3 expression after HDAC6 inhibitor treatment in MSI and MSS colorectal cancer cell lines; type: cell-based; conditions: IC50 and half-IC50 concentrations; MSS cell line compared with MSI cell line; FIG. 15
Description: The IC50 values of the HDAC6 inhibitor (Nexturastat A) in three MSI colorectal cancer cell lines (DLD-1, HCT116, and MC38) and three MSS colorectal cancer cell lines (SW620, HT29, and CT26) were determined. The cells were then treated with the inhibitor at the IC50 and half-IC50 concentrations (concentration corresponding to 1/2 of the IC50 value), and the expression levels of the immune checkpoint proteins PD-L1 and B7H3 were measured.

PD-L1 = PD-L1 expression (real-time PCR, western blot) in colorectal cell lines 48 hours after HDAC inhibitor treatment; type: cell-based; conditions: for PD-L1 expression at the RNA and protein levels: depending on the concentration; for PD-L1 expression: IC50 and 1/2 IC50, 48 hours, FIG. 2
Description: The HDAC3 inhibitor experiment was conducted by harvesting cells 48 hours after the treatment at each inhibitor concentration and obtaining RNA and proteins. RGFP966 (S7229) purchased from SellekChem was used as an HDAC3 inhibitor. Specifically, SW620, LS513, DLD-1, CT26, and MC38 were individually cultured, and the experiments were conducted using the IC50 and 1/2 IC50 concentration on the basis of the previously determined IC50 concentration. RNA and protein samples were collected 48 hours after RGFP966 treatment. The RNA samples were isolated using the TRIzol, isopropanol, and chloroform, and the protein samples were collected by lysis with a lysis buffer (Roche, 4719956001). RNA was synthesized into cDNA using a cDNA synthesis kit (Bioneer, K-2044-B), and real-time PCR was performed using a method according to SYBR (Applied Biosystems, 4367659). Proteins were quantified using the Bradford assay (Bio-Rad, 50000006), and subjected to loading, transfer, blocking (3% skim milk; BD, 232100), primary antibody (24 h, 4°C), and secondary antibody sequentially, thereby developing PD-L1.
The HDAC6 inhibitor experiment was conducted by the same method as in the HDAC3 inhibitor experiment of Experimental Example 3, and Nexturastat A HDAC6 selective inhibitor purchased from SellekChem was used as an HDAC6 inhibitor.
The HDAC8 inhibitor experiment was conducted by the same method as in the HDAC3 inhibitor experiment of Experimental Example 3, and PCI-34051 HDAC8 selective inhibitor purchased from SellekChem was used as an HDAC8 inhibitor.
The HDAC6 and HDAC8 inhibitor experiment was conducted by harvesting cells 48 hours after the treatment and then obtaining RNA and proteins.

Structure (SMILES): CCCCN(Cc1ccc(C(=O)NO)cc1)C(=O)Nc1ccccc1 [Nexturastat A]
- body weight of the mice (CT26 [1]): not reduced
- IC50 (HT29): 11.3 µM
- IC50 (LS513): 26.9 µM
- IC50 (DLD-1): 10.8 µM
- IC50 (SW620): 6.8 µM
- IC50 (CT26 [2]): 27.1 µM
- B7H3 expression (PD-L1 and B7H3): distinct increase tendencies
- PD-L1 expression (PD-L1 and B7H3): distinct increase tendencies
- PD-L1 expression at the RNA and protein levels (PD-L1; MSS cell lines (SW620, LS513, HT29, and CT26), FIG. 4): increase

Structure (SMILES): COc1ccc(Cn2ccc3ccc(C(=O)NO)cc32)cc1 [PCI-34051]
- IC50 (LS513): 19.6 µM
- IC50 (DLD-1): 6.36 µM
- IC50 (SW620): 31.8 µM
- PD-L1 expression at the RNA and protein levels (PD-L1; MSS cell lines (SW620, LS513, and CT26), FIG. 6): increase

Structure (SMILES): Nc1cc(F)ccc1NC(=O)/C=C/c1cnn(C/C=C/c2ccccc2)c1 [RGFP966]
- IC50 (LS513): 43.1 µM
- IC50 (DLD-1): 119 µM
- IC50 (SW620): 23.8 µM
- PD-L1 expression (PD-L1; MSS cell lines (SW620, LS513, and CT26), compared with HDAC6 and HDAC8): small increases
- PD-L1 expression (PD-L1; mouse cells): decrease tendency
